Data reported in article PMC9024893, “1,2,4-Trioxolane and 1,2,4,5-Tetraoxane Endoperoxides against Old-World Leishmania Parasites: In Vitro Activity and Mode of Action” (Pharmaceuticals, 2022).

How the values were obtained:
[1] = test system: L. infantum promastigotes; experiment: Flow cytometry detection of reactive oxygen species (CM-H2DCFDA); format: cell-based, Leishmania infantum; conditions: 2 × IC50, 5 h
Experimental: The L. infantum strain (MHOM/PT/1988/IMT151) was chosen for the cytometry analysis and promastigotes at a concentration of 1 × 10^7 parasites/mL were tested against the three compounds evaluated in the intracellular amastigotes assay (LC132, LC137 and LC138). Flow cytometry analysis were performed in a CytoFlex flow cytometer (Beckman Coulter), at an excitation wavelength of 488 nm (blue laser). Data acquisition were collected and registered using channels FL1 (flurescein isothiocyanate, FITC) with a BP filter (525 ± 40 nm) for Fluorescein and FL2 (IP) with a BP filter (570 ± 20 nm) for propidium iodide (PI) and 10,000 total events per sample were analysed using CytExpert v2.0.0.153 software. Samples were analysed in triplicates and two to three independent experiments were performed. Values are expressed as a percentage of cells for a given marker, relatively to the number of cells analysed ± standard error of mean (SEM).
For the detection of reactive oxygen species (ROS), a cell permeable probe CM-H2DCFDA (5 µg/mL Molecular Probes, Invitrogen) was used. Briefly, promastigotes were incubated with IC50 and 2 × IC50 of the tested compounds and amphotericin B for 5 h and 24 h, at 24 °C. […] Parasites were resuspended in normal medium (M199 medium) and fluorescence was measured by flow cytometry (blue laser), and the signals registered in the FL1/FITC channel.

[2] = test system: L. infantum promastigotes; experiment: Promastigotes DNA fragmentation (agarose gel); format: cell-based, Leishmania infantum; conditions: IC50 concentrations, 24 h
Experimental: 2 mM H2O2 was used as DNA damage inductor and non-treated cells were used as control. After centrifugation (10 min, 800× g) DNA was extracted using a commercial extraction kit (High Template DNA Preparation Kit, Roche, Germany), according to the manufacturer’s instructions.

`CCOC(=O)C1CCC2(CC1)OOC1(OO2)C2CC3CC(C2)CC1C3` (centres unmarked) [LC138] was tested, and the “ROS levels (FITC+), early phase of exposure” value [1] was “slight increase” and the “genomic DNA fragmentation” value [2] was “did not produce DNA fragmentation”.
